Molecular target: T1, human MCH-1 receptor (Homo sapiens, UniProt Q99705)
T1 construct: expressed in transfected cells
Assay: Ca2+ mobilization experiment for the MCH-1 receptor (FLIPR), inhibition of MCH-induced Ca2+ mobilization
Type: cell-based
Conditions: CHO cells stably expressing human MCH-1 receptor, inhibition of MCH-induced Ca2+ response, read-out: MCH-1 pIC50 (converted)
Protocol: The interaction of the compounds of Formula (I) with MCH-1 receptors was assessed in in vitro transient calcium (Ca^2+) mobilization assays in the fluorimetric imaging plate reader (FLIPR) format (Sullivan et al. 1999, Methods Mol Biol 114:125-133). In general, the natural agonist (MCH) is incubated with cells expressing the MCH-1 receptor, which elicits a concentration-dependent transient mobilization of Ca^2+ from internal stores. The interaction of the test compounds with the receptor is assessed in competition experiments. Various concentrations of the test compound are added to the incubation mixture containing the receptor-expressing cells and a submaximal concentration of MCH. The test compound in proportion to its antagonist potency and its concentration inhibits MCH-induced Ca^2+ mobilization.
Chinese Hamster ovary cells (CHO) stably expressing the human MCH-1 receptor are grown in a 1:1 mixture of Dulbecco's Modified Eagles Medium (DMEM) and HAM's F12 medium including Glutamax™ (Invitrogen), supplemented with 10% heat-inactivated fetal bovine serum and 400 μg/ml geneticin.
Twenty-four hours before the experiment, MCH-1 receptor-expressing CHO cells are seeded in 20 μl (5,000 cells per well) into 384-well black wall, clear bottom microtiter plates (Costar). On the day of the experiment, 20 μl per well calcium assay kit containing 10 mM probenicide (Molecular Devices) is added. Cells are loaded for 90 min at 37° C. and 5% CO2 in a cell culture incubator. After loading, 20 μl of serial dilutions of the test compound are added and cells are further incubated for 20 min at room temperature in the dark. After 20 min, 20 μl of a submaximal MCH concentration is added and changes in intracellular calcium are recorded directly in a FLIPR III apparatus (Molecular devices).
Data from assays in the presence of compound were calculated as a percentage of total Ca^2+-responses measured in the absence of test compound. Inhibition curves, plotting percent of total Ca^2+-responses versus the log value of the concentration of the test compound, were automatically generated, and sigmoidal inhibition curves were fitted using non-linear regression. The pIC50 values of test compounds were derived from individual curves.

T1 sequence (Q99705 whole entry): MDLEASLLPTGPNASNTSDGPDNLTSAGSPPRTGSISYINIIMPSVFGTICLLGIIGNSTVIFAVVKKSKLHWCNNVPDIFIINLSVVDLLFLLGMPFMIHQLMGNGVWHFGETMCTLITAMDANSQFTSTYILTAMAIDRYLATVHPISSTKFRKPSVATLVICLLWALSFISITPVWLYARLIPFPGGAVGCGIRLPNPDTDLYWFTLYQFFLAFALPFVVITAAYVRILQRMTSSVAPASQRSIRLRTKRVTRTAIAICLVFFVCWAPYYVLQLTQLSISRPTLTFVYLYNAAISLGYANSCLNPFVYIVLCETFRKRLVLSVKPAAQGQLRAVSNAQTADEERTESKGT

Row | Structure (SMILES) | IC50 [nM]
1 | O=C1CCN(CCOc2ccc(-n3ccnc(NCCOc4ccccc4)c3=O)cc2)CC1 [1-40] | 251
2 | COc1cc(-n2ccnc(NCCc3ccc(C(F)(F)F)cc3)c2=O)ccc1OCCN1CCCC1 [2-34] | 100
3 | CC(C)C(=O)N(C)C1CCN(c2ccc(-n3ccnc(NCCc4ccccc4)c3=O)cc2)C1 (stereo not drawn) [3-04] | 100
4 | Cc1cc(-n2ccnc(NCCOc3ccccc3)c2=O)ccc1OCCN1CCCC1 [1-48] | 50.1
5 | O=c1c(NCCOc2ccccc2)nccn1-c1ccc(OCCCN2CCCC2)cc1 [1-46] | 3160
6 | CN(C)CCN(C)CCOc1ccc(-n2ccnc(NCCOc3ccccc3)c2=O)cc1 [1-27] | > 10000
7 | COCCN1CCN(c2ccc(-n3ccnc(NCCc4ccccc4)c3=O)cc2Cl)CC1 [3-80] | 79.4
8 | COc1cc(-n2ccnc(SCCc3ccccc3)c2=O)ccc1C=CCN1CCCC1 [6-12] | 25.1
9 | O=c1c(NCCc2ccccc2)nccn1-c1ccc(N2CCN(CCO)CC2)c(Cl)c1 [3-79] | 63.1
10 | O=c1c(NCCOc2ccccc2)nccn1-c1ccc(OCCN2CCCC2)cc1 [1-35] | 501
11 | COc1cc(-n2ccnc(SCCc3cccc(Cl)c3)c2=O)ccc1OCCN1CCCC1 [2-25] | 126
12 | COc1cccc(CCNc2nccn(-c3ccc(OCCN4CCCC4)c(OC)c3)c2=O)c1 [2-35] | 31.6
13 | COc1ccc(CCNc2nccn(-c3ccc(OCCN4CCCC4)c(OC)c3)c2=O)cc1Cl [2-42] | 251
14 | O=c1c(SCCc2ccccc2)nccn1-c1ccc(OCCN2CCCC2)cc1 [2-10] | 31.6
15 | COc1cc(-n2ccnc(NCCCOc3ccccc3Cl)c2=O)ccc1OCCN1CCCC1 [2-29] | 63.1
16 | COc1ccc(CCNc2nccn(-c3ccc(OCCN4CCCC4)c(OC)c3)c2=O)cc1 [2-36] | 50.1
17 | COc1cc(-n2ccnc(NCCc3ccccc3)c2=O)ccc1NC1CC2COCC(C1)N2 (stereo not drawn) [3-27] | 79.4
18 | COc1cc(-n2ccnc(NCCOc3ccccc3)c2=O)ccc1N1CCC(O)C1 (stereo not drawn) [1-08] | 398
19 | O=c1c(NCCOc2ccccc2)nccn1-c1ccc(C=CCN2CCCC2)cc1 [1-16] | 100
20 | O=c1c(NCCOc2ccccc2)nccn1-c1ccc(OCCN2CCCCC2)cc1 [1-38] | 1580
21 | C=CCc1cc(-n2ccnc(NCCOc3ccccc3)c2=O)ccc1OCCN1CCCC1 [1-49] | 31.6
22 | COc1cccc(OCCCNc2nccn(-c3ccc(OCCN4CCCC4)c(OC)c3)c2=O)c1 [2-37] | 398
23 | O=c1c(NCCOc2ccccc2)nccn1-c1ccc(OCCN2CCCC2)c(CO)c1 [1-51] | 126

Row | Structure (SMILES) | IC50 [nM]
24 | CCN(CCOc1ccc(-n2ccnc(NCCOc3ccccc3)c2=O)cc1)Cc1ccncc1 [1-34] | 1000
25 | O=c1c(NCCOc2ccccc2)nccn1-c1ccc(OCCN2CCC3(CC2)OCCO3)cc1 [1-43] | 200
26 | COc1cc(-n2ccnc(SCCc3ccccc3)c2=O)ccc1N1CCC(N2C(C)CCCC2C)C1 (stereo not drawn) [6-09] | 31.6
27 | CN(C1CCN(c2ccc(-n3ccnc(NCCOc4ccccc4)c3=O)cc2)C1)S(C)(=O)=O (stereo not drawn) [1-05] | > 10000
28 | COc1cc(-n2ccnc(NCCOc3ccccc3)c2=O)ccc1OCC(C)N1CCCC1 (stereo not drawn) [1-82] | 63.1
29 | CCCC(=O)N(C)CCOc1ccc(-n2ccnc(NCCOc3ccccc3)c2=O)cc1 [1-31] | 316
30 | COc1ccc(OCCCNc2nccn(-c3ccc(OCCN4CCCC4)c(OC)c3)c2=O)cc1 [2-38] | 2000
31 | COc1cc(-n2ccnc(SCCc3ccccc3)c2=O)ccc1OC1CCN(C(C)C)C1 (stereo not drawn) [6-16] | 25.1
32 | O=c1c(NCCOc2ccccc2)nccn1-c1ccc(OCCN2CCCC2)c(Cl)c1 [1-56] | 7940
33 | NC(=O)C1CCN(CCOc2ccc(-n3ccnc(NCCOc4ccccc4)c3=O)cc2)CC1 [1-41] | 631
34 | COc1cc(-n2ccnc(NCCOc3ccccc3)c2=O)ccc1N1CCC(NC(C)=O)CC1 [1-14] | 316
35 | COc1cc(-n2ccnc(NCCOc3ccccc3)c2=O)ccc1OCCCN1CCC(F)(F)CC1 [1-79] | 39.8
36 | CNCCOc1ccc(-n2ccnc(NCCOc3ccccc3)c2=O)cc1 [1-23] | 1260
37 | COc1cc(-n2ccnc(NCCCOc3cccc(Cl)c3)c2=O)ccc1OCCN1CCCC1 [2-31] | 25.1
38 | CN(CCOc1ccc(-n2ccnc(NCCOc3ccccc3)c2=O)cc1)C1CCCCC1 [1-25] | 631
39 | COc1cc(-n2ccnc(OCCc3ccccc3)c2=O)ccc1OCCN1CCCC1 [2-06] | 79.4
40 | COc1cc(-n2ccnc(NCCCOc3ccc(Cl)cc3Cl)c2=O)ccc1OCCN1CCCC1 [2-41] | 631
41 | COc1cc(-n2ccnc(N3CCC(c4ccc(C)cc4)C3)c2=O)ccc1OCCN1CCCC1 (stereo not drawn) [4-04] | 316
42 | COc1cc(-n2ccnc(SCCc3ccccc3)c2=O)ccc1OC1CCNC1 (stereo not drawn) [6-14] | 100
43 | O=c1c(NCCCOc2ccccc2)nccn1-c1ccc(OCCN2CCCC2)cc1 [2-12] | 100
44 | COc1cc(-n2ccnc(NCCc3ccccc3)c2=O)ccc1NCCN1CCOCC1 [3-29] | 63.1
45 | CN(C)CCNc1ccc(-n2ccnc(NCCOc3ccccc3)c2=O)cc1 [1-19] | 100
46 | COc1cc(-n2ccnc(OCCOc3ccccc3)c2=O)ccc1OCCN1CCCC1 [2-14] | 100

Other lines, results leading:

Row | IC50 [nM] | Structure (SMILES)
47 | 100 | COc1cc(-n2ccnc(NCCOc3ccccc3)c2=O)ccc1OCCN(C)C(=O)C1CCCC1 [1-65]
48 | 200 | COCC(=O)NCCOc1ccc(-n2ccnc(NCCc3ccccc3)c2=O)cc1OC [3-43]
49 | 79.4 | COc1cc(-n2ccnc(NCCc3ccccc3)c2=O)ccc1OCCN1CCOC[C@H]1C [3-61]
50 | 25.1 | COc1cc(-n2ccnc(NCCc3ccccc3)c2=O)ccc1OC[C@H]1CCCN1 [3-34]
51 | 31.6 | COc1cc(-n2ccnc(NCCc3ccccc3)c2=O)ccc1OCCN1[C@H](C)CCC[C@@H]1C [3-57]
52 | 158 | COc1cc(-n2ccnc(NCCc3ccccc3)c2=O)ccc1OCCN1CCNC(=O)C1 [3-65]
53 | 50.1 | COc1cc(-n2ccnc(NCCOc3ccccc3)c2=O)ccc1OCCCN1CCCCC1 [1-77]
54 | 50.1 | COc1cc(-n2ccnc(NCCc3ccccc3)c2=O)ccc1OCCN1CC[C@H](F)C1 [3-46]
55 | 50.1 | CCCC(=O)N(C)CCOc1ccc(-n2ccnc(NCCOc3ccccc3)c2=O)cc1OC [1-62]
56 | 25.1 | COc1cc(-n2ccnc(NCCc3ccccc3)c2=O)ccc1OCCNC1CC1 [3-41]
57 | 126 | COc1cc(-n2ccnc(NCCc3ccccc3)c2=O)ccc1OCC1CCCN1C(=O)OC(C)(C)C (stereo not drawn) [3-36]
58 | 63.1 | COc1cc(-n2ccnc(NCCOc3ccccc3)c2=O)ccc1OC1CNC1 [1-57]
59 | 39.8 | COc1cc(-n2ccnc(NCCc3ccccc3)c2=O)ccc1OCCN1CCC(C#N)CC1 [3-51]
60 | 39.8 | COc1cc(-n2ccnc(NCCc3ccccc3)c2=O)ccc1OCCCN(C)C1CC1 [3-68]
61 | 79.4 | COc1cc(-n2ccnc(NCCc3ccccc3)c2=O)ccc1OCCNC(=O)CN(C)C [3-40]
62 | 39.8 | COc1cc(-n2ccnc(NCCc3ccccc3)c2=O)ccc1OCCN1CCCC(C(N)=O)C1 (stereo not drawn) [3-52]
63 | 158 | COc1cc(-n2ccnc(NCCc3ccccc3)c2=O)ccc1OCCN1CC(C)OC(C)C1 (stereo not drawn) [3-63]
64 | 39.8 | CCCN1CCC(Nc2ccc(-n3ccnc(NCCc4ccccc4)c3=O)cc2OC)C1 (stereo not drawn) [3-26]
65 | 79.4 | COc1cc(-n2ccnc(NCCc3ccccc3)c2=O)ccc1OC1CCN(C)C1 (stereo not drawn) [3-32]
66 | 31.6 | COc1cc(-n2ccnc(NCCc3ccccc3)c2=O)ccc1OCCCN1CCC(F)(F)CC1 [3-74]

Source: patent US8329704B2, “Substituted pyrazinone derivatives for use in MCH-1 mediated diseases” (Janssen Pharmaceutica, N.V., priority 2005, dated 2012)
